We go through two compounds from patent US8937167B2 (Washington University, priority 2009, dated 2015).

One data set has as its system PBC-1. The data set can be described thus: Mouse bladder infection with TMP-SMZ resistant strain, with or without TMP-SMZ in drinking water. Format: in vivo, E. coli (UPEC); host C3H/HeN mouse. The settings on record: 6 hpi, mannoside IP 30 min prior and/or TMP-SMZ 3 days in drinking water.
The format of data set [1] is in vitro ADME. The settings on record: 64800 sec, […], pH 7.4. The protocol: Materials. The assay was carried out using Multiscreen PVDF 96-well plates (Millipore, Billerica, Mass.) using the company's Transporter Receiver Plate. The lipid (dioleyoylphosphotidylcholine (DOPC):Stearic Acid (80:20, wt %) in dodecane was obtained from Avanti Polar lipids (Alabaster, Ala.). Hank's Buffered Salt Solution (HBSS), pH 7.4 was obtained from MediaTech (Manassas, Va.).
Methods. Each of the test compounds was diluted to 2.5 mM in DMSO (Sigma, St Louis, Mo.) and further diluted prior to testing to 2.5 μM in HBSS, pH 7.4. The assay was performed using a Millipore 96-well Multiscreen-IP PAMPA plate, 5 μl of the lipid suspension was directly added to the PVDF membrane of the filter plate. Immediately following the addition of the lipid to the membrane, 200 μl of HBSS solution containing the test compound was added to the donor (upper) chamber. HBSS (300 μl) is also added to the receiver plate and the filter and receiver plates assembled and incubated overnight at room temperature in a moistened sealed bag to prevent evaporation. The concentration in the receiver plate as well as an equilibrium plate, that represents a theoretical, partition-free sample, was determined by HPLC-tandem mass spectrometry. Analysis of each compound was performed in triplicate.
Analysis. Analysis of both the acceptor and equilibrium samples were performed using an AB 3200 triple quadripole mass spectrometer linked to a Shimadzu DGU-20A HPLC with a Prevail C18 column (3 μm, 2.1×10 mm) with a flow rate of 0.35 ml/min. The mobile phase used was A: 0.1% Formic Acid in water, B: 0.1% Formic Acid in methanol. The elation gradient method is described in the table. Data acquisition and peak height determination was performed using Analyst v.1.4.2.
Calculations. The login of the effective permeability (LogPe) was calculated using the following equation
[formula] [formula] Where the drug concentration is the peak areas for the analyte and VD and VA is the volume of the donor and acceptor compartment respectively. The area is the surface area of the PVDF membrane (0.11 cm^2) and time is the incubation in seconds (64,800 sec). Each value is the mean of triplicates performed on the same day.

Take `CNC(=O)c1cc(C(=O)NC)cc(-c2ccc(O[C@H]3O[C@H](CO)[C@@H](O)[C@H](O)[C@@H]3O)cc2)c1` [ZFH-2056]: the “bladder bacterial CFUs” value with PBC-1 is recorded as “significant drop in bacterial load”.

In the case of `COC(=O)c1cccc(-c2ccc(O[C@H]3O[C@H](CO)[C@@H](O)[C@H](O)[C@@H]3O)cc2)c1` [Compound 1, phenyl mannoside, reference compound], in data set [1], the “PAMPA (LogPe)” value is reported as −5.42.
